Literature values in US11291679B1, “Injectable, infusable, instillable ivermectin adjuvant for cancer therapies” (MOUNTAIN VALLEY MD INC., priority 2021, dated 2022).

variability of cmax in blood plasma levels (blood plasma)	variation across the concentrations in the tumor environment (tumor environment) [fold]	Compound	immunogenic cancer cell death and T cell infiltration (breast tumors)	efficacy in vivo (limiting tumor growth) (breast tumors; single agent or combination, synergy p=0.03)
		ivermectin	induces immunogenic cancer cell death (ICD) and robust T cell infiltration into breast tumors	neither agent alone showed efficacy in vivo
4-5 fold	~15	CCC(C)n1ncn(-c2ccc(N3CCN(c4ccc(OCC5COC(Cn6cncn6)(c6ccc(Cl)cc6Cl)O5)cc4)CC3)cc2)c1=O (stereo not shown) [itraconazole]		
